Our source for the TBUT values is US20240408167A1, “COMPOSITION FOR TREATING OCULAR DISEASES CONTAINING PEPTIDE” (Encuragen Inc., priority 2023, published 2024).

The assay deals with mouse experimental dry eye (EDE) model. The assay can be described thus: Tear film break-up time (TBUT), EDE mouse model. In kind it is in vivo. Here is the method: To confirm the pharmacological effect and appropriate dosage, a pilot study was first conducted with the mice. In addition, a rabbit DED (Dry Eye Disease) model with a large exposed facial area was evaluated in comparison with a mouse model. In the mouse experimental dry eye (EDE) model, scopolamine hydrobromide (Sigma-Aldrich. St. Louis, MO, USA) was subcutaneously injected three times a day (9 a.m., 1:30 p.m., 6 p.m.) in a room exposed to ventilation with an ambient humidity of less than 40% at 25±2° C. to induce DED.
The mice were randomly divided into five groups: (1) EDE (experimental dry eye) control mice without eye drops administration, (2) EDE mice treated with a vehicle (phosphate-buffered saline), (3) EDE mice treated with 0.001% (PEG)-BHD1028 (4) EDE mice treated with 0.01% (PEG)-BHD1028, and (5) EDE mice treated with 0.1% (PEG)-BHD1028. All the treatment groups received 2 μL of eye drops three times a day.
TBUT is the time elapsed between the last blink and the first appearance of fluorescein decomposition, and it is an indicator of tear film stability. TBUT was evaluated by administering 1 μL of 1% fluorescein sodium dye to the lower conjunctival sac of the mice and visualizing the tear film using cobalt blue light of a slit-lamp biomicroscope. The measurement was repeated three times to obtain an average value.
Tear film instability is an important pathological characteristic of DED and the most common indicator of tear quality. […] The improvement in the 0.01% (PEG)-BHD1028 group was greater than that in the 0.001% (PEG)-BHD1028 group on Day 10 (p<0.05), but there was no difference between 0.01% and 0.1%.

The substance “NH2-Tyr-Tyr-Phe-Ala-Tyr-His-Pro-Asn-Ile-Pro-Gly-Leu-Tyr-Tyr-Phe-COOH (H-YYFAYHPNIPGLYYF-OH; also: PEGylated, site not given here (mPEG), acetate salt) [(PEG)-BHD1028]” displayed a TBUT (0.001%, Day 5) of 1.333 ± 0.081 s; a TBUT (0.001%, Day 10) of 1.359 ± 0.140 s; a TBUT (0.01%, Day 5) of 1.406 ± 0.082 s; a TBUT (0.01%, Day 10) of 1.530 ± 0.137 s; a TBUT (0.1%, Day 5) of 1.408 ± 0.095 s; a TBUT (0.1%, Day 10) of 1.483 ± 0.113 s.
